In one assay the test system is HIV-1LAI S117T/L214F. Put plainly: p24 reduction assay in MT-2 cells, S117T/L214F. It is filed as cell-based. The conditions noted are these: Table 8. On the procedure:
Cells. MT-2 cells (AIDS Research and Reference Reagent Program, National Institute of Allergy and Infectious Diseases, National Institutes of Health) were maintained in RPMI 1640 supplemented with 10% fetal bovine serum (FBS; JRH Biosciences, Lenexa, Kans.), 10 mM HEPES buffer, 50 IU/ml penicillin and 50 μg/ml streptomycin.
(§1) Antiviral Susceptibility Assays. The antiviral activity of each compound was determined by inoculating MT-2 cells with HIV-1LAI at a multiplicity of infection (MOI) of 0.01 TCID50/cell, followed by incubation in the presence of three-fold serial drug dilutions (3 wells per dilution) (see Mellors, et. al., Antimicrob. Agents Chemother. 39:1087-1092). Five or seven days after infection, culture supernatants were harvested, lysed with 0.5% triton-X 100 and assayed for p24 antigen concentration using a commercial ELISA assay (DuPont, NEN Products, Wilmington, Del.). The antiviral activity of the compounds is expressed as the IC50, which is the concentration required to inhibit 50% of p24 antigen production. The fold-resistance of a test virus is calculated by dividing the IC50 of the test virus by the IC50 of the HIV-1LAI control virus.
Generation of Mutant Recombinant HIV-1. HIV-1 containing the desired mutations were generated by oligonucleotide directed mutagenesis (Altered Sites II, Promega) as previously described (Mellors, et. al., Molecular Pharm. 41:446-451). After mutagenesis, mutant RT was subcloned into the pxxHIV-1LAI cloning vector using the silent XmaI and XbaI restriction sites located at the 5′ and 3′ ends of RT. Clones were DNA sequenced to verify the presence of the desired mutation(s) and electroporated into MT-2 cells as described above to generate infectious mutant recombinant HIV-1.
Mutant RT was generated via oligonucleotide-directed mutagenesis and ligated into the pXXHIV-1LAI cloning vector. […]
Recombinant viruses containing the mutations selected by invention compounds were also evaluated for their susceptibility to AZT, as shown in Table 8.

Assay [1] relates to recombinant HIV-1 with V75L alone or in combination with L214F or M164I. Put plainly: p24 reduction assay in MT-2 cells, V75L recombinants. It is filed as cell-based. The conditions noted are these: Example 6. The protocol:
as §1
Generation of Mutant Recombinant HIV-1. HIV-1 containing the desired mutations were generated by oligonucleotide directed mutagenesis (Altered Sites II, Promega) as previously described (Mellors, et. al., Molecular Pharm. 41:446-451). After mutagenesis, mutant RT was subcloned into the pxxHIV-1LAI cloning vector using the silent XmaI and XbaI restriction sites located at the 5′ and 3′ ends of RT. […]

The term EC50 denotes the concentration needed to bring the measured effect to its halfway point.

Where only a bound is given, the exact number is not on record here.

Consider `Cc1cn([C@H]2C[C@H](N=[N+]=[N-])[C@@H](CO)O2)c(=O)[nH]c1=O` [AZT, 3′-Azido-3′-deoxythymidine], for which the EC50 in the assay on HIV-1LAI S117T/L214F (Human immunodeficiency virus 1, MT2, S117T/L214F, read-out: AZT EC50) stood at 22 ± 10 nM. In the assay on HIV-1LAI S117T/L214F (S117T/L214F relative to wild type virus), the Fold resistance was found to be 1.1.

Regarding `CCCCCCCCCCCCCCCCCCOC[C@H](COP(=O)(O)C(=O)O)OC` [MB-PFA, 1-O-octadecyl-2-O-methyl-sn-glycero-3-PFA], in assay [1], the Fold resistance is under 3 fold.

(Values after patent publication US20030207843A1, “Treatment of drug-resistant human immunodeficiency virus infection” (priority 1999, published 2003).)
